# Measured values published in paper PMC11284790, “Targeting Myeloperoxidase Ameliorates Gouty Arthritis: A Virtual Screening Success Story” (Journal of Medicinal Chemistry, 2024).
# How the values were obtained:
# [1] = tested on: PARP1 in RPE1-hTERT cells; assay: PARP1 off-target assay: H2O2-induced ADP-ribosylation; type: cell-based; settings: RL6 1, 10 and 50 μM; olaparib 10 μM; 600 μM H2O2 for 10 min
# Method: After 1 h of pretreatment, the cells were treated with 600 μM H2O2 (Sigma) in PBS for 10 min at 37 °C. Cells were lysed in preheated Laemmli buffer devoid of beta-mercaptoethanol and bromophenol blue, and the lysates were boiled for 15 min. Protein concentration was determined using a BCA protein quantification kit (Pierce) and normalized. Beta-mercaptoethanol and bromophenol blue were then added, and the lysates were boiled again for 15 min. Proteins were separated in a 10% SDS-PAGE gel and then transferred to nitrocellulose membranes (Bio-Rad). […] Membranes were incubated with ECL Prime (Amersham), and the signals were detected using a Chemidoc MP Imaging System (Bio-Rad). […] Signals were quantified using ImageJ software.
# (C) ADP-ribosylation in RPE1-hTERT cells was
# triggered by H2O2 (600 µM) for 10 min. (D) Gel densitometry quantified by ImageJ
# software, n=3. A concentration of 0.1% DMSO was used.
# [2] = tested on: human neutrophils; assay: MSU-induced NETosis assay (sytox green fluorescence microscopy); type: cell-based; settings: 20 μM compound, MSU 250 μg/mL, 90 min
# Method: NETosis assay was conducted on human neutrophils adhered to lysine-coated glass coverslips as previously reported.[80] After neutrophils’ adhesion, the compounds were diluted in RPMI medium (free of phenol red and fetal bovine serum) at a final concentration of 20 μM (0.15% DMSO) and added to the cells for 15 min at 37 °C in a 5% CO2 atmosphere. Then, MSU crystals (250 μg/mL), known to induce NETosis, were added. After 90 min incubation, the medium was carefully removed, paraformaldehyde was added (500 μL at 4%), and incubated at 4 °C overnight. In the following day, paraformaldehyde was removed, and cells were washed threefold with tris-HCl buffer (20 mM, pH 7.4) and kept into the same buffer at 4 °C. Tris-HCl buffer was carefully removed, and DNA was stained by adding 500 μL SYTOX Green (500 nM diluted in tris-HCl buffer). The system was kept for 30 min at room temperature, protected from light. After staining, the coverslips were mounted over the glass slides using ProLong Diamond Antifade Mountant fixation medium. Fluorescence images were acquired in an Axiovert 200 (Zeiss) fluorescence microscope with a 20x/0.4 objective and Zeiss Filter Set 09, λex = 450–490 nm, λem = above 515 nm. Images were taken by an Axiocam HR R3 camera device.
# [3] = tested on: MSU-induced paw edema; assay: MSU-induced paw edema, oral treatment; type: in vivo, male C57BL/6 mice
# Method: Paw volume (mL) was measured at various time points, including before injection (baseline, B), […] 1, 2, 3, 4, 5, and 6 h following MSU injection using a plethysmometer (Ugo Basile, Comerio, Italy) (Figure 7). For this, the injected hind paw was immersed into the dipping solution (6 mM NaCl diluted in distilled water and added with 2 mL/L of a wetting compound provided by the manufacturer) until the ankle. The extent of edema was quantified as a change in paw volume (Δ mL) by subtracting the basal paw volume from the volume of the paw measured at each time point. To evaluate the antiedematogenic effect of orally administered MPO inhibitors (p.o.), the animals were fasted for 1 h and then treated with equimolar doses of the following substances: vehicle (VEH: 5% DMSO; 0.5% tween 80 in PBS), mefenamic acid (30 mg/kg), RL 6 (33 mg/kg), RL 7 (54 mg/kg), RL 21 (30 mg/kg), or ZINC9089086 (34 mg/kg). After 1 h, the anesthetized mice (2% isoflurane, v/v in O2) received either the vehicle (PBS, 30 μL, i.pl.) or 1.5 mg/30 μL MSU (i.pl.). The paw volume was evaluated at the same time points as previously described. The percentage of edema inhibition by the compounds was calculated discounting the paw volume of mice that received oral or intraperitoneal vehicle and PBS intraplantar (VEH + VEH).
# [4] = target: Human leukocyte MPO (Homo sapiens, UniProt P05164); assay: Reversibility test (residual peroxidase activity after 200-fold dilution); type: biochemical; parameters: Human leukocyte MPO (EC 1.7.1.11) was purchased from Planta Natural Products; purchased Planta Natural Products (Vienna, Austria); host or cells: human leukocytes; settings: 100 nM MPO, 20 μM inhibitor, 30 min, then 200-fold dilution
# Method: Reversibility of the inhibition was analyzed by peroxidase residual activity.[77] […] After incubation, the system was diluted 200-fold using acetate buffer ([…], pH 5.4) in the presence of TMB (2 mM dissolved in 10% dimethylformamide). After a new hydrogen peroxide addition (2 μM), the oxidation of TMB was quantified at 655 nm.
# [5] = Stopped-flow reaction of compound with HOCl (fluorescence decay); settings: 20 μM compound, 250 μM HOCl, up to 1 s
# Method: The fast oxidation of RL7 was monitored in a stopped-flow spectrophotometer (Applied Photophysics SX20) using the intrinsic RL7 fluorescence (λex = 306 nm and λem = above 340 nm). The reaction of RL7 (20 μM in 0.3% DMSO) with HOCl (250 μM) was performed in phosphate buffer (20 mM, pH 7.4), diethylenetriaminepentaacetic acid (100 μM), and NaCl (140 mM). Data were obtained within 1 s.
# Chain of Human leukocyte MPO (P05164 279-745 limits assumed): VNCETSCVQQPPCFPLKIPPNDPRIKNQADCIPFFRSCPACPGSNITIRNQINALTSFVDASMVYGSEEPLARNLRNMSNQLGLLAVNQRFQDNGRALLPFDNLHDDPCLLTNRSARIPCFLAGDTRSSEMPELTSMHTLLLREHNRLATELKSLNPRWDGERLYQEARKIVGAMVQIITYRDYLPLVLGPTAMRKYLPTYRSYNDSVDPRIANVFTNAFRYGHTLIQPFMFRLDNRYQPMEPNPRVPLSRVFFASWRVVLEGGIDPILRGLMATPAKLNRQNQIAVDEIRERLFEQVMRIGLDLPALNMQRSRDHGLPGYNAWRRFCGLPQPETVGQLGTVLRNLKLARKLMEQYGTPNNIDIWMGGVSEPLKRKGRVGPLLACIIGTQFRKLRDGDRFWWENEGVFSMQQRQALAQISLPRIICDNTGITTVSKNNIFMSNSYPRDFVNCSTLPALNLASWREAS
# Chain of Human leukocyte MPO (P05164 165-278 limits assumed): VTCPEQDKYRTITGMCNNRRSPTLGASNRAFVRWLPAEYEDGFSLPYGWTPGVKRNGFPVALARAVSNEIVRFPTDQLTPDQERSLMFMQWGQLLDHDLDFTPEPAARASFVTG
Structure (SMILES),inhibition of H2O2-induced ADP-ribosylation [1],inhibition of MSU-induced NETosis [2],inhibition of edema vs VEH + MSU ([3]; 33 mg/kg po) [%],reversibility of MPO inhibition (residual peroxidase activity) [4],reaction with HOCl (fluorescence decay) [5],inhibition of edema vs VEH + MSU ([3]; 54 mg/kg po) [%]
Nc1cc2c3c(cccc3c1)C(=O)N(N)C2=O [RL6],failed to inhibit,strongly inhibited,57.0,reversible inhibition,–,–
CN1CCc2nc3sc(C(=O)Nc4cccc(C#N)c4)c(N)c3cc2C1 [RL7],–,to a lesser extent,–,–,rapidly reacts with HOCl,74.3
